Data as given in patent US20240287154A1, “MC3R AGONIST PEPTIDES” (The Regents of the University of Michigan, priority 2021, published 2024).
Non-standard residues stand in square brackets, D forms with d. Residues, ends and D or L forms follow the SMILES beside them. Phe(4-Br) = N[C@@H](Cc1ccc(Br)cc1)C(=O)O; NMeY = CN[C@@H](Cc1ccc(O)cc1)C(=O)O; Nle = CCCC[C@H](N)C(=O)O; dAbu = CC[C@@H](N)C(=O)O

What was measured:
human MC4R = human MC4R (Homo sapiens, UniProt P32245); assay: Intracellular cAMP levels in live cells, MC3R selectivity relative to MC4R; assay type: cell-based; settings: cAMP assays in human MC3R and human MC4R stable cell lines
Chain of human MC4R (P32245 whole entry): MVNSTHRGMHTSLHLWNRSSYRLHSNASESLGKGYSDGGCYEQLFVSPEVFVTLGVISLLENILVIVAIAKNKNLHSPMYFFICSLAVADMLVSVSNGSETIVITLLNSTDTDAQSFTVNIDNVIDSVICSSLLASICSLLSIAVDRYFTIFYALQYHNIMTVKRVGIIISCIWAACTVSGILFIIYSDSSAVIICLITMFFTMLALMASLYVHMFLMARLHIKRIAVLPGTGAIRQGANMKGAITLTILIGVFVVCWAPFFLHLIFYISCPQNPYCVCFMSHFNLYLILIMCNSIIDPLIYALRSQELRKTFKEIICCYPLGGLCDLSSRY

human MC3R = target: T1, human MC3R (Homo sapiens, UniProt P41968); assay: Intracellular cAMP levels in live cells, MC3R agonist activity; assay type: cell-based; settings: cAMP split-luciferase reporter cell line stably expressing human MC3R; direct agonist effect, measurement window 1
T1 construct: expressed in transfected cells
T1 sequence (P41968 whole entry): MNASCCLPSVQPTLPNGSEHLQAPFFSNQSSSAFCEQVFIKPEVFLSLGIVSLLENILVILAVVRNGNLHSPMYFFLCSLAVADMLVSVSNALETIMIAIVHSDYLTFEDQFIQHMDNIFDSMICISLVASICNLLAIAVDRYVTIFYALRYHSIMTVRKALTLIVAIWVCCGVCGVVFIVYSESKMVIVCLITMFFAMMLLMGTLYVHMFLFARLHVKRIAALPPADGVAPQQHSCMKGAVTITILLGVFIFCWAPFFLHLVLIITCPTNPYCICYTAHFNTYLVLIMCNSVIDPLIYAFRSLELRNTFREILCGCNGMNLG
Procedure: The stable cell lines were grown and maintained in selection media consisting of Dulbecco's modified Eagle media (DMEM) with 4.5 g/l D-glucose, and 4 mM L-glutamine (Thermo Fisher Scientific, Waltham, MA), supplemented with 10% fetal bovine serum, 100 units/ml penicillin, 100 μg/ml streptomycin, 2.5 μg/ml amphotericin B, 200 μg/ml hygromycin B (for positive selection of the GScAMP22f luciferase reporter), and Geneticin™ (G418) 700 μg/ml (for MC3R or MC4R selection). Actual serum concentration during the assay is estimated to be about 1%. Cell line identity is routinely verified by qPCR and MC3R- and MC4R-specific oligonucleotides.
The assay for the determination of the CAMP response in live cells was described previously. […] Ccells were seeded at a density of 20,000 cells per well using 384-well poly-D lysine-coated, clear bottom, and black-wall assay plates (Corning Inc. Corning, NJ). Cells were allowed to attach to the plates for 18 to 24 h after which growth media was removed and 20 ul of 4% D-luciferin (Promega) in CO2 independent, serum-free medium (Thermo Fisher Scientific) was added to each well. […] Intracellular cAMP levels were measured using an FDSS 7000EX Functional Drug Screening System (Hamamatsu Photonics, Hamamatsu, Japan) in the Center for Chemical Genomics at the Life Sciences Institute. This instrument allowed the in-line addition of test-peptides and receptor agonists while simultaneously acquiring the luminescence signal from live cells. […] A submaximal forskolin (20 μM) concentration was also included to serve as a normalization reference to account for cell number variations and differences in assay transducer efficiency between cell lines.
With this set up it was possible to evaluate the direct agonist effect of the test-peptides on the MC3R and MC4R cell lines during measurement window 1, while the antagonist profile in the presence of EC90 α-MSH was determined on measurement window 2. […] EC50 or IC50 potency values were determined by non-linear regression by fitting the data to a sigmoid four-parameter variable slope model using the GraphPad Prism version 8.4 software package (San Diego CA).

CC(C)[C@H](NC(=O)[C@@H](N)Cc1ccc(O)cc1)C(=O)N[C@@H](CCC(=O)O)C(=O)N[C@H](C)C(=O)N[C@@H](Cc1c[nH]cn1)C(=O)N[C@H](Cc1ccccc1)C(=O)N[C@@H](CCCNC(=N)N)C(=O)N[C@H](Cc1c[nH]c2ccccc12)C(=O)N[C@@H](CC(=O)O)C(=O)N[C@@H](CCCNC(=N)N)C(=O)N[C@@H](Cc1ccccc1)C(=O)NCC(=O)O [CTX-1106, Tyr-Val-Glu-D-Ala-His-D-Phe-Arg-D-Trp-Asp-Arg-Phe-Gly] (H-YVE[dA]H[dF]R[dW]DRFG-OH)
MC3R selectivity (relative to MC4R) (human MC4R): 120 | EC50 (human MC3R): 5.8 nM

CCCC[C@H](NC(=O)[C@@H](NC(=O)[C@@H](N)Cc1ccc(O)cc1)C(C)C)C(=O)N[C@H](C)C(=O)N[C@@H](Cc1c[nH]cn1)C(=O)N[C@H](Cc1ccccc1)C(=O)N[C@@H](CCCNC(=N)N)C(=O)N[C@H](Cc1c[nH]c2ccccc12)C(=O)N[C@@H](CC(=O)O)C(N)=O [CTX-1109, Tyr-Val-Nle-D-Ala-His-D-Phe-Arg-D-Trp-Asp] (H-YV[Nle][dA]H[dF]R[dW]D-NH2)
MC3R selectivity (relative to MC4R) (human MC4R): 10.6 | EC50 (human MC3R): 13.1 nM

CCCC[C@H](NC(=O)[C@@H](NC(=O)[C@@H](N)Cc1ccc(O)cc1)C(C)C)C(=O)N[C@H](C)C(=O)N[C@@H](Cc1c[nH]cn1)C(=O)N[C@@H](Cc1ccccc1)C(=O)N[C@@H](CCCNC(=N)N)C(=O)N[C@H](Cc1c[nH]c2ccccc12)C(=O)N[C@@H](CC(=O)O)C(=O)N[C@@H](CCCNC(=N)N)C(=O)N[C@@H](Cc1ccccc1)C(=O)NCC(N)=O [CTX-1118, Tyr-Val-Nle-D-Ala-His-Phe-Arg-D-Trp-Asp-Arg-Phe-Gly] (H-YV[Nle][dA]HFR[dW]DRFG-NH2)
MC3R selectivity (relative to MC4R) (human MC4R): 59 | EC50 (human MC3R): 1.2 nM

CCCC[C@H](NC(=O)[C@@H](NC(=O)[C@@H](N)Cc1ccc(O)cc1)C(C)C)C(=O)N[C@H](C)C(=O)N[C@@H](Cc1c[nH]cn1)C(=O)N[C@@H](Cc1ccccc1)C(=O)N[C@@H](CCCNC(=N)N)C(=O)N[C@H](Cc1c[nH]c2ccccc12)C(=O)N[C@@H](CC(=O)O)C(=O)N[C@@H](CCCNC(=N)N)C(=O)N[C@@H](Cc1ccccc1)C(N)=O [CTX-1119, Tyr-Val-Nle-D-Ala-His-Phe-Arg-D-Trp-Asp-Arg-Phe] (H-YV[Nle][dA]HFR[dW]DRF-NH2)
MC3R selectivity (relative to MC4R) (human MC4R): 24 | EC50 (human MC3R): 1.9 nM

CCCC[C@H](NC(C)=O)C(=O)N[C@H](C)C(=O)N[C@@H](Cc1c[nH]cn1)C(=O)N[C@@H](Cc1ccccc1)C(=O)N[C@@H](CCCNC(=N)N)C(=O)N[C@H](Cc1c[nH]c2ccccc12)C(=O)N[C@@H](CC(=O)O)C(=O)N[C@@H](CCCNC(=N)N)C(=O)N[C@@H](Cc1ccccc1)C(=O)NCC(=O)O [CTX-1122, Nle-D-Ala-His-Phe-Arg-D-Trp-Asp-Arg-Phe-Gly] (Ac-[Nle][dA]HFR[dW]DRFG-OH)
MC3R selectivity (relative to MC4R) (human MC4R): 7,703 | EC50 (human MC3R): 1.2 nM

CCCC[C@H](NC(=O)[C@@H](NC(=O)[C@H](Cc1ccc(O)cc1)NC)C(C)C)C(=O)N[C@H](C)C(=O)N[C@@H](Cc1c[nH]cn1)C(=O)N[C@@H](Cc1ccccc1)C(=O)N[C@@H](CCCNC(=N)N)C(=O)N[C@H](Cc1c[nH]c2ccccc12)C(=O)N[C@@H](CC(=O)O)C(=O)N[C@@H](CCCNC(=N)N)C(=O)N[C@@H](Cc1ccccc1)C(=O)NCC(=O)O [CTX-1124, NMe-Tyr-Val-Nle-D-Ala-His-Phe-Arg-D-Trp-Asp-Arg-Phe-Gly] (H-[NMeY]V[Nle][dA]HFR[dW]DRFG-OH)
MC3R selectivity (relative to MC4R) (human MC4R): 69 | EC50 (human MC3R): 1.7 nM

CCCC[C@H](NC(=O)[C@@H](NC(=O)[C@@H](N)Cc1ccc(O)cc1)C(C)C)C(=O)N[C@@H](C)C(=O)N[C@@H](Cc1c[nH]cn1)C(=O)N[C@@H](Cc1ccccc1)C(=O)N[C@@H](CCCNC(=N)N)C(=O)N[C@H](Cc1c[nH]c2ccccc12)C(=O)N[C@@H](CC(=O)O)C(N)=O [CTX-1129, Tyr-Val-Nle-Ala-His-Phe-Arg-D-Trp-Asp] (H-YV[Nle]AHFR[dW]D-NH2)
MC3R selectivity (relative to MC4R) (human MC4R): 7.5 | EC50 (human MC3R): 1.2 nM

CCCC[C@H](NC(=O)[C@@H](NC(=O)[C@@H](N)Cc1ccc(O)cc1)C(C)C)C(=O)N[C@H](CC)C(=O)N[C@@H](Cc1c[nH]cn1)C(=O)N[C@@H](Cc1ccccc1)C(=O)N[C@@H](CCCNC(=N)N)C(=O)N[C@H](Cc1c[nH]c2ccccc12)C(=O)N[C@@H](CC(=O)O)C(N)=O [CTX-1131, Tyr-Val-Nle-D-Abu-His-Phe-Arg-D-Trp-Asp] (H-YV[Nle][dAbu]HFR[dW]D-NH2)
MC3R selectivity (relative to MC4R) (human MC4R): 65 | EC50 (human MC3R): 6.6 nM

CCCC[C@H](NC(=O)[C@@H](NC(=O)[C@@H](N)Cc1ccc(O)cc1)C(C)C)C(=O)N[C@H](Cc1ccccc1)C(=O)N[C@@H](Cc1c[nH]cn1)C(=O)N[C@@H](Cc1ccccc1)C(=O)N[C@@H](CCCNC(=N)N)C(=O)N[C@H](Cc1c[nH]c2ccccc12)C(=O)N[C@@H](CC(=O)O)C(N)=O [CTX-1132, Tyr-Val-Nle-D-Phe-His-Phe-Arg-D-Trp-Asp] (H-YV[Nle][dF]HFR[dW]D-NH2)
MC3R selectivity (relative to MC4R) (human MC4R): 6.8 | EC50 (human MC3R): 3.9 nM

CCCC[C@H](NC(=O)[C@@H](NC(=O)[C@@H](N)Cc1ccc(O)cc1)C(C)C)C(=O)N[C@H](Cc1ccccc1)C(=O)N[C@@H](Cc1c[nH]cn1)C(=O)N[C@@H](Cc1ccccc1)C(=O)N[C@@H](CCCNC(=N)N)C(=O)N[C@H](Cc1c[nH]c2ccccc12)C(=O)N[C@@H](CC(=O)O)C(=O)N[C@@H](CCCNC(=N)N)C(=O)N[C@@H](Cc1ccccc1)C(=O)NCC(=O)O [CTX-1136, Tyr-Val-Nle-D-Phe-His-Phe-Arg-D-Trp-Asp-Arg-Phe-Gly] (H-YV[Nle][dF]HFR[dW]DRFG-OH)
MC3R selectivity (relative to MC4R) (human MC4R): 37 | EC50 (human MC3R): 1.9 nM

CCCC[C@H](NC(C)=O)C(=O)N[C@H](CC)C(=O)N[C@@H](Cc1c[nH]cn1)C(=O)N[C@@H](Cc1ccccc1)C(=O)N[C@@H](CCCNC(=N)N)C(=O)N[C@H](Cc1c[nH]c2ccccc12)C(=O)N[C@@H](CC(=O)O)C(=O)N[C@@H](CCCNC(=N)N)C(=O)N[C@@H](Cc1ccccc1)C(=O)NCC(=O)O [CTX-1144, Nle-D-Abu-His-Phe-Arg-D-Trp-Asp-Arg-Phe-Gly] (Ac-[Nle][dAbu]HFR[dW]DRFG-OH)
MC3R selectivity (relative to MC4R) (human MC4R): 2,633 | EC50 (human MC3R): 6.6 nM

CCCC[C@H](NC(C)=O)C(=O)N[C@H](C)C(=O)N[C@@H](Cc1c[nH]cn1)C(=O)N[C@@H](Cc1ccccc1)C(=O)N[C@@H](CCCNC(=N)N)C(=O)N[C@H](Cc1c[nH]c2ccccc12)C(=O)N[C@@H](CC(=O)O)C(=O)N[C@H](CCCNC(=N)N)C(=O)N[C@@H](Cc1ccccc1)C(=O)NCC(=O)O [CTX-1146, Nle-D-Ala-His-Phe-Arg-D-Trp-Asp-D-Arg-Phe-Gly] (Ac-[Nle][dA]HFR[dW]D[dR]FG-OH)
EC50 (human MC3R): 170 nM

CCCC[C@H](NC(=O)CNC(=O)COCCOCCNC(=O)CNC(=O)CCc1ccc(I)cc1)C(=O)N[C@H](C)C(=O)N[C@@H](Cc1c[nH]cn1)C(=O)N[C@@H](Cc1ccccc1)C(=O)N[C@@H](CCCNC(=N)N)C(=O)N[C@H](Cc1c[nH]c2ccccc12)C(=O)N[C@@H](CC(=O)O)C(=O)N[C@@H](CCCNC(=N)N)C(=O)N[C@@H](Cc1ccccc1)C(=O)NCC(=O)O [CTX-1148, Gly-Nle-D-Ala-His-Phe-Arg-D-Trp-Asp-Arg-Phe-Gly]
MC3R selectivity (relative to MC4R) (human MC4R): 1197 | EC50 (human MC3R): 1.5 nM

CCCC[C@H](NC(=O)CNC(=O)COCCOCCNC(=O)CNC(=O)CCc1ccc(I)cc1)C(=O)N[C@H](C)C(=O)N[C@@H](Cc1c[nH]cn1)C(=O)N[C@@H](Cc1ccccc1)C(=O)N[C@@H](CCCNC(=N)N)C(=O)N[C@H](Cc1c[nH]c2ccccc12)C(=O)N[C@@H](CC(=O)O)C(=O)N[C@@H](CCCNC(=N)N)C(=O)N[C@H](Cc1ccccc1)C(=O)NCC(=O)O [CTX-1154, Gly-Nle-D-Ala-His-Phe-Arg-D-Trp-Asp-Arg-D-Phe-Gly]
MC3R selectivity (relative to MC4R) (human MC4R): 1070 | EC50 (human MC3R): 5.8 nM

CCCC[C@H](NC(C)=O)C(=O)N[C@H](C)C(=O)N[C@@H](Cc1c[nH]cn1)C(=O)N[C@@H](Cc1ccccc1)C(=O)N[C@@H](CCCNC(=N)N)C(=O)N[C@H](Cc1c[nH]c2ccccc12)C(=O)NCC(=O)N[C@@H](CCCCN)C(=O)N1CCC[C@H]1C(=O)N[C@H](C(N)=O)C(C)C [CTX-1164, Nle-D-Ala-His-Phe-Arg-D-Trp-Gly-Lys-Pro-Val] (Ac-[Nle][dA]HFR[dW]GKPV-NH2)
MC3R selectivity (relative to MC4R) (human MC4R): 83 | EC50 (human MC3R): 1.5 nM

CCCC[C@H](NC(C)=O)C(=O)N[C@H](C)C(=O)N[C@@H](Cc1c[nH]cn1)C(=O)N[C@@H](Cc1ccc(Br)cc1)C(=O)N[C@@H](CCCNC(=N)N)C(=O)N[C@H](Cc1c[nH]c2ccccc12)C(=O)N[C@@H](CC(=O)O)C(=O)N[C@@H](CCCNC(=N)N)C(=O)N[C@@H](Cc1ccccc1)C(=O)NCC(=O)O [CTX-1165, Nle-D-Ala-His-Phe(4-Br)-Arg-D-Trp-Asp-Arg-Phe-Gly] (Ac-[Nle][dA]H[Phe(4-Br)]R[dW]DRFG-OH)
MC3R selectivity (relative to MC4R) (human MC4R): 5598 | EC50 (human MC3R): 3 nM
